The target of test [1] is T1, human wild-type (WT)-pendrin (Homo sapiens, UniProt O43511).
T1 construct: expressed in transfected cells
T1 sequence (O43511 1-780): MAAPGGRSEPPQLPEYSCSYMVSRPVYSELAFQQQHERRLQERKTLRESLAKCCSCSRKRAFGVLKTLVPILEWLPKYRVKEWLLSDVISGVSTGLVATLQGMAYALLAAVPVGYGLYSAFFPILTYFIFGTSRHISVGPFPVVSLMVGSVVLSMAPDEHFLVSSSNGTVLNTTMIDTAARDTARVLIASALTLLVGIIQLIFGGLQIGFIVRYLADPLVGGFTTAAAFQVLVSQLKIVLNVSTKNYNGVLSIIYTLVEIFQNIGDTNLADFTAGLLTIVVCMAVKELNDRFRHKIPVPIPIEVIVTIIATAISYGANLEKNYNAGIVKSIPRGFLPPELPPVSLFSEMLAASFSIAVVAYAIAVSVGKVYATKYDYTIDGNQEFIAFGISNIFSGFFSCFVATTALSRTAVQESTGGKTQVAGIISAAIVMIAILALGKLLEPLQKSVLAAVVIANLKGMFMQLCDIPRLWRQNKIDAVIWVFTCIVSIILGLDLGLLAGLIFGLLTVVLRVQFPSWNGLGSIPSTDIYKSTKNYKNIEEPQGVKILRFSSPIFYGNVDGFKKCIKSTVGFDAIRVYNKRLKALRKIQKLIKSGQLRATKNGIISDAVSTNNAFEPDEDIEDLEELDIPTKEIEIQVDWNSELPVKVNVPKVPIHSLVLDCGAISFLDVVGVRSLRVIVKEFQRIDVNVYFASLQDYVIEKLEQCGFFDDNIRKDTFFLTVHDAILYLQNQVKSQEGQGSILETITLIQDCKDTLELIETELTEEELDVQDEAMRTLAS
Nature of the test: Pendrin-mediated Cl^−/HCO3^− exchange activity in CHO-K1 cells. Type of test: cell-based. The following applies: for inhibition of pendrin Cl^−/HCO3^− exchange activity: CHO-K1 cells, pretreated 10 minutes. The protocol:
For measurement of Cl^−/HCO3^− exchange activity, intracellular pH (pHi) was measured in WT-pendrin expressing CHO-K1 and HNE cells using pH sensor SNARF5-AM (Molecular Probes). The cells were treated with 5 μM SNARF5-AM for 30 minutes, and then were equipped in a perfusion chamber on the stage of a reverse fluorescence microscope (Nikon, Tokyo, Japan) equipped with a cooled charge-coupled device camera (Zyla sCMOS), image acquisition and analysis software (Meta Imaging Series 7.7). The cells were perfused with a HCO3^− buffer solution containing 120 NaCl, 5 KCl, 1 MgCl2, 1 CaCl2, 10 D-glucose, 5 HEPES, and 25 NaHCO3 (pH 7.4) (mM). To measure the Cl^−/HCO3^− exchange activity, the HCO3^− buffer solution was changed to Cl^−-free HCO3^− buffer solution. When external Cl^−-free HCO3^− buffer solution is applied, the outflow of Cl^− and inflow of HCO3^− are increased by pendrin. To maintain the pH of the HCO3^− buffer solution, the solution was continuously gas treated with 95% O2 and 5% CO2. SNARF5 fluorescence was recorded at 515±10 nm of the excitation wavelength and 640±10 nm of the emission wavelength, and intracellular pH calibration was performed with a solution including 145 mM KCl, 10 mM HEPES and […] nigericin having a calibrated pH to 6.2-7.6.
When the CHO-K1 cells overexpressing WT-pendrin and iodine sensitive YFP are treated with a high concentration Cl^− solution, Cl^− moves to the cells and HCO3^− moves outside of the cells, and this change induces acidification of intracellular pH with reduction of YFP fluorescence.

The target of test [2] is T1, human wild-type (WT)-pendrin. Kind of test: Pendrin-mediated Cl^−/OH^− exchange activity in CHO-K1 cells. The class given is cell-based. As to the method:
For measurement of Cl^−/OH^− exchange activity, intracellular pH (pHi) was measured in WT-pendrin expressing CHO-K1 and HNE cells using pH sensor SNARF5-AM (Molecular Probes). The cells were treated with 5 μM SNARF5-AM for 30 minutes, and then were equipped in a perfusion chamber on the stage of a reverse fluorescence microscope (Nikon, Tokyo, Japan) equipped with a cooled charge-coupled device camera (Zyla sCMOS), image acquisition and analysis software (Meta Imaging Series 7.7). To measure the Cl^−/OH^− exchange activity, HEPES buffer solution was changed to CV-free HEPES buffer solution for generation of an Cl^− gradient driving Cl^− outflow and OH^− inflow of cytosol by pendrin.

Test [3] has as its system MUC5AC mRNA. Kind of test: Real-time PCR of MUC5AC mRNA in IL-4-treated HNE cells. The class given is cell-based, human. The following applies: IL-4-treated HNE cells (F10: 120 hours after treatment). As to the method: (A) The MUC5AC mRNA expression level was determined at the indicated time after treatment of F56 ([…]) in IL-4 (10 ng/ml)-treated HNE cells (mean±S.E., n=4). (B) Periodic acid-Schiff (PAS) staining showing goblet cell hyperplasia of IL-4 and IL-13 (10 ng/ml)-treated HNE cells in presence or absence of F56 ([…]) at Day 7. (C) Measurement of the total volume of ASL and fluid meniscus in HNE cells expressing wild-type (wt) or mutant (mt) PDS. The HNE cells were treated with IL-4 (10 ng/ml, 48 hours) in presence or absence of […]. (D) Representative image of a transwell insert having normal HNE cells. Arrows indicate the fluid meniscus of HNE cells treated with IL-4 (10 ng/ml, 48 hours) in presence or absence of […]. (E) Representative protein expression result of pendrin in IL-4 and IL-13-treated HNE cells. […]
The MUC5AC mRNA expression level was determined in 120 hours after F10 treatment by real-time quantitative PCR in IL-4-treated HNE cells.
The total messenger RNA (mRNA) was extracted using TRIzol reagent (Invitrogen, Carlsbad, CA, USA), and was reverse-transcribed using a random hexamer primer, an oligo(dT) primer and SuperScript® III reverse transcriptase (Invitrogen). Quantitative real-time PCR was performed using StepOnePlus Real-Time PCR system (Applied Biosystems, Foster City, CA, USA) and Thunderbird SYBR qPCR mix (Tokyobo, Osaka, Japan). […]

“Also recorded” adds a separate entry of the source.

With `CC(C)(C)c1ccc(C2=NC(=Cc3ccc[nH]3)C(=O)O2)cc1` [F10, 4-((1H-pyrrol-2-yl)methylene)-2-(4-(tert-butyl)phenyl)oxazol-5 (4H)-one], in test [1], the “inhibition of pendrin Cl^−/HCO3^− exchange activity” value is “strongly inhibit”. The “inhibition of pendrin Cl^−/OH^− exchange activity” value in test [2] is reported as “strongly inhibit”. Further, the “mRNA expression of IL-4-induced MUC5AC” value in test [3] is reported as “reduced the mRNA expression of MUC5AC in a concentration-dependent manner”.
Regarding `CC(C)(C)c1ccc(C2=NC(=Cc3cccs3)C(=O)O2)cc1` [F56, 2-(4-(tert-butyl)phenyl)-4-(thiophen-2-ylmethylene)oxazol-5(4H)-one], the “inhibition of pendrin Cl^−/HCO3^− exchange activity” value in test [1] is given as “significantly inhibited; also recorded: strongly inhibited”. Also, the IC50 in test [1] (FIG. 4(a), read-out: 50% inhibition of Cl^−/HCO3^− exchange activity) is around 10 µM. The “inhibition of pendrin Cl^−/OH^− exchange activity” value in test [2] is “strongly inhibited”. Further, the “mRNA expression of IL-4-induced MUC5AC” value in test [3] was “significantly reduced”.

These data come from patent US12691101B2, “Compound and method for preventing or treating of respiratory diseases comprising the same as an active ingredient” (YONSEI UNIVERSITY, UNIVERSITY - INDUSTRY FOUNDATION (UIF), priority 2019, dated 2026).
